Patent US20120282242A1 (priority 2002, published 2012)
Values joined by “and” are separate entries in the source; they are usually repeats but may differ in a detail not shown here. Identical values can stand only once. “Also recorded” adds a separate entry of the source.

What was measured:
glaucoma patients [1] = details: human, in vivo
glaucoma patients [2] = details: human, in vivo; remark: listed apart in the source
[3] = tested on: eyelid muscles (Riolan's muscle, orbicularis muscle); design: species or system human; details: in vivo
glaucoma patients [4] = tested on: glaucoma patients; design: species or system human; details: in vivo
[5] = tested on: primary cultures of spinal cord neurons; details: cited from earlier work
[6] = tested on: brain synaptosome preparations; details: cited from earlier work
eye muscles = details: in vivo

botulinum toxin
12 week period average reduction of baseline eye pressure (glaucoma patients [1]): 16%
% IOP reduction (glaucoma patients [1]): 16.6% and 11.5%
% reduction IOP (glaucoma patients [1]): 12.5% and 10% and 7%
IOP post Rx during first 3 Rx (glaucoma patients [1]): 26 and 24 and 23
IOP reduction (glaucoma patients [1]): 10.5% and 14%
reduction of IOP in the treated eye (glaucoma patients [1]): no reduction of IOP
Outcome: VF progression (glaucoma patients [2]): no VF progression; also recorded: minimal VF progression
Outcome: progression of diabetic retinopathy (glaucoma patients [2]): No progression of diabetic retinopathy
baseline eye pressure after injection [3]: A reduction of baseline eye pressure was also noted
decrease in eye pressure per spike per blink [3]: more than 5 mm Hg
lower increase in eye pressure during forceful squeezing of the eyelids compared with control [3]: ~50%
reduction in eye pressure after forceful closure of the eyes [3]: ~35%
spike in pressure during blinking measured by LMD [3]: 25 mm Hg and 20 mm Hg
disturbance of lid function / subjective complaints (glaucoma patients [4]): did not lead to any apparent disturbance of lid function
evoked release of glutamate [5]: inhibits the evoked release of glutamate
release of acetylcholine and glutamate [6]: inhibits the release of both neurotransmitters

NCC1(CC(=O)O)CCCCC1 [Gabapentin]
therapeutic effect (eye muscles): achieved therapeutic effect

COc1cccc2c1C(=O)c1c(O)c3c(c(O)c1C2=O)C[C@@](O)(C(=O)CO)C[C@@H]3O[C@H]1C[C@H](N)[C@H](O)[C@H](C)O1 [doxorubicin]
effect on eye muscles (eye muscles): reduce the strength of eye muscles
reducing and modulating muscle volume and muscle contraction (eye muscles): have proven to be effective

COc1ccc(CCN(C)CCCC(C#N)(c2ccc(OC)c(OC)c2)C(C)C)cc1OC (stereo not drawn) [verapamil]
therapeutic effect (eye muscles): causes desired therapeutic effect

CCN(CC)CC(=O)Nc1c(C)cccc1C [lidocaine, Diethylaminoacet-2,6-xylidide]
modulation of muscle action (eye muscles; iv): promotes the desired effect, but the effect is short lived
